According to article PMC5392131 (Current topics in behavioral neurosciences, 2017):
Where two headings read alike, the source gives them in different places.

Key:
[1] = test system: DAT; test: DAT uptake inhibition in rat brain synaptosomes; format: biochemical; settings: for DAT/SERT ratio: (DAT IC50)^−1/(SERT IC50)^−1, higher values indicate greater DAT selectivity
[2] = test system: male Sprague–Dawley rats; test: Locomotor activity; format: in vivo, rat; settings: rats undergoing microdialysis; i.v. 3 mg/kg (after 1.0 mg/kg at time zero)
[3] = Plasma pharmacokinetics of MDPV and metabolites after i.p. MDPV administration; settings: rat plasma
[4] = test system: extracellular dopamine in nucleus accumbens; test: In vivo microdialysis in nucleus accumbens, dialysate dopamine; settings: rat nucleus accumbens; i.v. 3 mg/kg (after 1.0 mg/kg at time zero)
[5] = test system: NET; test: NET uptake inhibition in rat brain synaptosomes; format: biochemical; settings: relative to cocaine
[6] = test system: male Sprague–Dawley rats; settings: cited from earlier work
[7] = test system: extracellular dopamine in nucleus accumbens; settings: rats, cited from earlier work; for Elevation in extracellular dopamine: i.v. 0.3 mg/kg MDPV, 3.0 mg/kg methylone
[8] = test system: CYP 2D6; settings: read-out: CYP 2D6 inhibition IC50; in vitro; cited from earlier work
[9] = test system: SERT; test: SERT uptake inhibition in rat brain synaptosomes; format: biochemical; settings: relative to cocaine
[10] = cited from earlier work
[11] = test system: DAT; settings: S-MDPV versus R-MDPV; cited from earlier work
[12] = test system: extracellular 5-HT in nucleus accumbens; settings: rats; i.v. 3.0 mg/kg methylone; cited from earlier work
[13] = i.p. MDPV 0.5 mg/kg, mean±SEM, N=6
[14] = i.p. MDPV 1.0 mg/kg, mean±SEM, N=6
[15] = i.p. MDPV 2.0 mg/kg, mean±SEM, N=6
[16] = i.p. MDPV 2.0 mg/kg, mean±SEM, N=6, listed as MPDV

Molecule `CNC(C)C(=O)c1ccc(C)cc1` (centres unmarked) [Mephedrone, 4-methyl-N-methylcathinone, reference compound] has a DAT/SERT ratio [1] of 0.55.

Molecule `CC(N)Cc1ccccc1` (centres unmarked) [Amphetamine, reference compound] has a DAT/SERT ratio [1] of 36.75.

`COC(=O)[C@H]1[C@@H](OC(=O)c2ccccc2)C[C@@H]2CC[C@H]1N2C` [Cocaine, reference compound] showed a DAT/SERT ratio [1] of 1.48.

With `CCC(C(=O)c1ccccc1)N1CCCC1` (stereo not drawn) [α-PBP, α-pyrrolidinobutiophenone] the DAT/SERT ratio [1] was over 159.

For `CCCC(C(=O)c1ccc(O)c(O)c1)N1CCCC1` (centres unmarked) [3,4-Catechol-PV, 3,4-dihydroxypyrovalerone], the Effect on ambulation [2] was “no change in ambulation”, the AUC [3, 13] was 2,822±415 min μg/L and the Cmax [3, 13] was 14 ± 2 ng/mL. For the same molecule, the Tmax [3, 13] was 2.67 ± 0.417 h, the AUC [3, 14] was 8,317±589 min μg/L and the Cmax [3, 14] was 36 ± 4 ng/mL. The Tmax [3, 14] was 3.15 ± 0.983 h, the AUC [3, 15] was 12,762±1,625 min μg/L and the Cmax [3, 15] was 46 ± 9 ng/mL. For the same molecule, the Tmax [3, 15] was 3.43 ± 0.417 h and the “Effect on extracellular dopamine” value [4] was “small, albeit significant, elevations”.

`CC(C(=O)c1ccccc1)N1CCCC1` (stereo not drawn) [α-PPP, α-pyrrolidinopropiophenone] gave a DAT/SERT ratio [1] of over 50.

For `CCCC(C(=O)c1ccc2c(c1)OCO2)N1CCCC1` (centres unmarked) [MDPV, 3,4-methylenedioxypyrovalerone], the “Potency as inhibitor at NET compared to cocaine” value [5] was “tenfold more potent”, the AUC [3, 13] was 1,114 min μg/L and the Cmax [3, 13] was 20 ± 5 ng/mL. The Tmax [3, 13] was 0.167 ± 0 h, the t1/2 [3, 13] was 1.53 ± 0.12 h and the AUC ([3]; i.p. MDPV 0.5 mg/kg, mean±SEM, N=6, listed as MPDV) was 1,114±330 min μg/L. For the same molecule, the AUC [3, 14] was 2,858±859 min μg/L, the Cmax [3, 14] was 54 ± 18 ng/mL and the Tmax [3, 14] was 0.167 ± 0 h. For the same molecule, the t1/2 [3, 14] was 1.32 ± 0.217 h, the AUC [3, 15] was 8,726 min μg/L and the Cmax [3, 15] was 135 ± 29 ng/mL. The Tmax [3, 15] was 0.167 ± 0 h, the AUC [3, 16] was 8,726±1,877 min μg/L and the t1/2 [3, 16] was 1.65 ± 0.233 h. For the same molecule, the “Time at which Cmax is achieved” value ([3]; i.p. MDPV (0.5, 1, 2 mg/kg)) was at most 10 min, the Cmax ([3]; read-out: Cmax (molar), i.p. MDPV 2 mg/kg) was about 500 nM and the DAT/SERT ratio [1] was 816.82. For the same molecule, the “Potency as inhibitor at DAT compared to cocaine” value ([1]; rat brain synaptosomes, relative to cocaine) was 50 fold, the “Potency as locomotor stimulant compared to cocaine” value [6] was “about tenfold more potent” and the “Elevation in extracellular dopamine” value [7] was “threefold”. For the same molecule, the “Potency to increase dialysate dopamine compared to cocaine” value ([7]; i.v. administration) was “tenfold more potent”, the IC50 [8] was 1300 nM and the “Potency as inhibitor at SERT compared to cocaine” value [9] was “tenfold less potent”. The “Half-life (t1/2)” value ([10]; rat plasma, 2 mg/kg s.c. MDPV) was “about 80 min”, the “Plasma Cmax” value ([10]; rat, 2 mg/kg s.c. MDPV) was 271 ng/mL and the “Time of maximal plasma concentration (Cmax) after injection” value ([10]; rat, s.c. MDPV (0.5, 1, 2 mg/kg)) was 15 to 20 min. For the same molecule, the Cmax ([10]; read-out: Plasma Cmax (molar), rat, 2 mg/kg s.c. MDPV) was about 1000 nM.

In the case of `CCC[C@@H](C(=O)c1ccc2c(c1)OCO2)N1CCCC1` [S-MDPV], the “Potency at inhibiting DAT compared to R-MDPV” value [11] is listed as 100 times.

`CCCC(C(=O)c1ccccc1)N1CCCC1` (stereo not drawn) [α-PVP, α-pyrrolidinovalerophenone] showed a DAT/SERT ratio [1] of over 833.

With `CCCC(C(=O)c1ccc(O)c(OC)c1)N1CCCC1` (centres unmarked) [4-OH-3-MeO-PV, 4-hydroxy-3-methoxypyrovalerone] the AUC [3, 13] was 14,657±2,577 min μg/L, the Cmax [3, 13] was 57 ± 7 ng/mL and the Tmax [3, 13] was 2.8 ± 0.45 h. For the same molecule, the AUC [3, 14] was 28,168±3,373 min μg/L, the Cmax [3, 14] was 135 ± 23 ng/mL and the Tmax [3, 14] was 4.33 ± 0.4 h. The AUC [3, 15] was 51,925±7,946 min μg/L, the Cmax [3, 15] was 198 ± 31 ng/mL and the Tmax [3, 15] was 4 ± 0.9 h. The DAT/SERT ratio [1] was over 12.

For `CNC(C)C(=O)c1ccc2c(c1)OCO2` (centres unmarked) [Methylone, 3,4-methylenedioxy-N-methylcathinone, reference compound], the DAT/SERT ratio [1] is given as 0.77, the “Elevation in extracellular dopamine” value [7] is given as “threefold” and the “Elevation in extracellular 5-HT” value [12] is given as “tenfold”.
